Patent US6458978B1, “Fluorous phosphines and process for their preparation” (Atofina Vlissingen B.V., priority 1998, dated 2002)

Assays:
[1] = Determination of partition coefficients of phosphines in fluorous biphasic systems (ICP-AAS on phosphorus); assay type: physicochemical; settings: 0° C., 1:1 mixture (v/v)
Text: For applications in fluorous bi-phasic catalysis and for catalyst recycling by fluorous phase extraction techniques an important feature of the fluorous aryl phosphines and the derived catalytic complexes is the partition coefficient P(P=Cfluorous phase/Corganic phase. C=concentration) in fluorous bi-phasic systems.
11. Determination of Partition Coefficients
The partition coefficients were determinded by dissolving a known amount of phosphine (typically between 11 and 60 μmol) in a fluorous biphasic system either consisting of c-C6F11CF3 (2.000±0.002 mL) and n-pentane, n-octane or toluene (2.006±0.002 mL). The resulting mixture was stirred at 25° C. until all solid had dissolved and equilibrated in a water ice bath (1 h). An aliquot (0.500±0.002 mL) was removed from each layer by syringe. Analysis by ICP-AAS on phosphorus gave the amount of phosphine present, with an accuracy of ±0.3 ppm. A conservative estimate of the experimental error in the partition coefficient is ±1 in the last digit.

[2] = Solubility of dppe and dppe derivatives G{m,x} in perfluorinated and non-fluorinated solvents; assay type: physicochemical; settings: for solubility at room temperature, FC-72: FC-72: mixture of perfluorinated hexanes
[3] = Hydrogenation of 1-octene under single phase conditions in α,α,α-trifluorotoluene
Method: To be able to directly compare the activities of fluorous derivatives H{1,6} and H{1,8} with non-fluorous [P(C6H4-4-SiMe3)3]3RhCl (H{0}) and the conventional Wilkinson catalyst (PPh3)3RhCl, homogeneous hydrogenation of 1-octene were carried out under single phase conditions in the hybrid solvent α,α,α-trifluorotoluene at atmospheric H2 pressures. Highest rates of hydrogen uptake (14.2 mol.L^−1.h^−1) were measured for 1c at relatively high rhodium and olefine concentrations (entry 2, Table 7). Under these conditions a zero-order dependence in [1-octene] was found up to ca 80% conversion resulting in a linear conversion versus time plot. In all other experiments ([Rh]=4.0-8.0 mM, [1-octene]0=1.46 M) rates of hydrogen uptake were lower (<11 mol.L^−1.h^−1) and conversion versus time plots corresponded to a rate law -d[1-octene]/dt=kobs.[1-octene] for >98% conversion allowing to evaluate catalyst activity in terms of the observed first order rate constant kobs. Since for these experiments the rates of dihydrogen uptake were well below the maximum value obtained in entry 2, diffusion limitation of H2 can be excluded. In addition to kobs, turn over frequencies (TOF in mol.mol^−1.h^−1) were derived from the tangent of a 4^thorder polynomal fit to conversion versus time plots at 25% conversion and serve as a measure of catalyst activity independent of any assumed kinetic relationship with substrate.
Catalytic reactions were carried out under single phase conditions in CF3C6H5 at 80° C. under 1 bar of hydrogen pressure. After >90% conversion (monitored by the H2 uptake) volatiles were distilled off and analyzed by GC. Activities (TOF) were determined for 25% conversion.

[4] = [Rh] 4.0 mM, [1-octene] 1.46 M, T = 80° C., p(H2) = 1 bar, α,α,α-trifluorotoluene
[5] = [Rh] 8.0 mM, [1-octene] 2.92 M, T = 80° C., p(H2) = 1 bar, α,α,α-trifluorotoluene

Row | Structure (SMILES) | Fluorous partition coefficient P = cfluorous phase/corganic phase, toluene/c-C6F11CF3 [1] | Fluorous partition coefficient P = cfluorous phase/corganic phase, n-octane/c-C6F11CF3 [1] | Fluorous partition coefficient P = cfluorous phase/corganic phase, n-pentane/c-C6F11CF3 [1] | also measured
1 | C[Si](C)(C)c1ccc(P(c2ccc([Si](C)(C)C)cc2)c2ccc([Si](C)(C)C)cc2)cc1 [D{0}, P(C6H4SiMe3-4)3, reference compound] | 0.007 | – | – | –
2 | C[Si](C)(CCC(F)(F)C(F)(F)C(F)(F)C(F)(F)C(F)(F)C(F)(F)F)c1ccc(P(c2ccc([Si](C)(C)CCC(F)(F)C(F)(F)C(F)(F)C(F)(F)C(F)(F)C(F)(F)F)cc2)c2ccc([Si](C)(C)CCC(F)(F)C(F)(F)C(F)(F)C(F)(F)C(F)(F)C(F)(F)F)cc2)cc1 [D{1,6}] | 0.13 | 0.42 | 0.53 | –
3 | C[Si](C)(CCC(F)(F)C(F)(F)C(F)(F)C(F)(F)C(F)(F)C(F)(F)C(F)(F)C(F)(F)F)c1ccc(P(c2ccc([Si](C)(C)CCC(F)(F)C(F)(F)C(F)(F)C(F)(F)C(F)(F)C(F)(F)C(F)(F)C(F)(F)F)cc2)c2ccc([Si](C)(C)CCC(F)(F)C(F)(F)C(F)(F)C(F)(F)C(F)(F)C(F)(F)C(F)(F)C(F)(F)F)cc2)cc1 [D{1,8}] | 1.06 | 1.4 | 0.78 | –
4 | C[Si](CCC(F)(F)C(F)(F)C(F)(F)C(F)(F)C(F)(F)C(F)(F)F)(CCC(F)(F)C(F)(F)C(F)(F)C(F)(F)C(F)(F)C(F)(F)F)c1ccc(P(c2ccc([Si](C)(CCC(F)(F)C(F)(F)C(F)(F)C(F)(F)C(F)(F)C(F)(F)F)CCC(F)(F)C(F)(F)C(F)(F)C(F)(F)C(F)(F)C(F)(F)F)cc2)c2ccc([Si](C)(CCC(F)(F)C(F)(F)C(F)(F)C(F)(F)C(F)(F)C(F)(F)F)CCC(F)(F)C(F)(F)C(F)(F)C(F)(F)C(F)(F)C(F)(F)F)cc2)cc1 [D{2,6}, P[C6H4Si(CH2CH2C6F13)2Me-4]3] | 3.8 | 6.6 | 2.0 | –
5 | C[Si](CCC(F)(F)C(F)(F)C(F)(F)C(F)(F)C(F)(F)C(F)(F)C(F)(F)C(F)(F)F)(CCC(F)(F)C(F)(F)C(F)(F)C(F)(F)C(F)(F)C(F)(F)C(F)(F)C(F)(F)F)c1ccc(P(c2ccc([Si](C)(CCC(F)(F)C(F)(F)C(F)(F)C(F)(F)C(F)(F)C(F)(F)C(F)(F)C(F)(F)F)CCC(F)(F)C(F)(F)C(F)(F)C(F)(F)C(F)(F)C(F)(F)C(F)(F)C(F)(F)F)cc2)c2ccc([Si](C)(CCC(F)(F)C(F)(F)C(F)(F)C(F)(F)C(F)(F)C(F)(F)C(F)(F)C(F)(F)F)CCC(F)(F)C(F)(F)C(F)(F)C(F)(F)C(F)(F)C(F)(F)C(F)(F)C(F)(F)F)cc2)cc1 [D{2,8}] | 3.8 | 11 | 3.3 | –
6 | FC(F)(F)C(F)(F)C(F)(F)C(F)(F)C(F)(F)C(F)(F)CC[Si](CCC(F)(F)C(F)(F)C(F)(F)C(F)(F)C(F)(F)C(F)(F)F)(CCC(F)(F)C(F)(F)C(F)(F)C(F)(F)C(F)(F)C(F)(F)F)c1ccc(P(c2ccc([Si](CCC(F)(F)C(F)(F)C(F)(F)C(F)(F)C(F)(F)C(F)(F)F)(CCC(F)(F)C(F)(F)C(F)(F)C(F)(F)C(F)(F)C(F)(F)F)CCC(F)(F)C(F)(F)C(F)(F)C(F)(F)C(F)(F)C(F)(F)F)cc2)c2ccc([Si](CCC(F)(F)C(F)(F)C(F)(F)C(F)(F)C(F)(F)C(F)(F)F)(CCC(F)(F)C(F)(F)C(F)(F)C(F)(F)C(F)(F)C(F)(F)F)CCC(F)(F)C(F)(F)C(F)(F)C(F)(F)C(F)(F)C(F)(F)F)cc2)cc1 [D{3,6}] | 2.1 | 3.7 | 5.3 | –
7 | FC(F)(F)C(F)(F)C(F)(F)C(F)(F)C(F)(F)C(F)(F)C(F)(F)C(F)(F)CC[Si](CCC(F)(F)C(F)(F)C(F)(F)C(F)(F)C(F)(F)C(F)(F)C(F)(F)C(F)(F)F)(CCC(F)(F)C(F)(F)C(F)(F)C(F)(F)C(F)(F)C(F)(F)C(F)(F)C(F)(F)F)c1ccc(P(c2ccc([Si](CCC(F)(F)C(F)(F)C(F)(F)C(F)(F)C(F)(F)C(F)(F)C(F)(F)C(F)(F)F)(CCC(F)(F)C(F)(F)C(F)(F)C(F)(F)C(F)(F)C(F)(F)C(F)(F)C(F)(F)F)CCC(F)(F)C(F)(F)C(F)(F)C(F)(F)C(F)(F)C(F)(F)C(F)(F)C(F)(F)F)cc2)c2ccc([Si](CCC(F)(F)C(F)(F)C(F)(F)C(F)(F)C(F)(F)C(F)(F)C(F)(F)C(F)(F)F)(CCC(F)(F)C(F)(F)C(F)(F)C(F)(F)C(F)(F)C(F)(F)C(F)(F)C(F)(F)F)CCC(F)(F)C(F)(F)C(F)(F)C(F)(F)C(F)(F)C(F)(F)C(F)(F)C(F)(F)F)cc2)cc1 [D{3,8}] | 1.0 | 4.8 | 7.0 | –
8 | C[Si](C)(C)c1ccc(P(CCP(c2ccc([Si](C)(C)C)cc2)c2ccc([Si](C)(C)C)cc2)c2ccc([Si](C)(C)C)cc2)cc1 [G{0}, (Me3SiC6H4-4)2PCH2CH2P(C6H4SiMe3-4)2, reference compound] | – | – | – | solubility at room temperature, THF [2]: + (+: >0.1 g/ml); solubility at room temperature, FC-72 [2]: − (−: <0.01 g/ml)
9 | C[Si](C)(CCC(F)(F)C(F)(F)C(F)(F)C(F)(F)C(F)(F)C(F)(F)F)c1ccc(P(CCP(c2ccc([Si](C)(C)CCC(F)(F)C(F)(F)C(F)(F)C(F)(F)C(F)(F)C(F)(F)F)cc2)c2ccc([Si](C)(C)CCC(F)(F)C(F)(F)C(F)(F)C(F)(F)C(F)(F)C(F)(F)F)cc2)c2ccc([Si](C)(C)CCC(F)(F)C(F)(F)C(F)(F)C(F)(F)C(F)(F)C(F)(F)F)cc2)cc1 [G{1,6}] | – | – | – | solubility at room temperature, THF [2]: + (+: >0.1 g/ml); solubility at room temperature, toluene [2]: + (+: >0.1 g/ml); solubility at room temperature, FC-72 [2]: − (−: <0.01 g/ml)
10 | C[Si](C)(CCC(F)(F)C(F)(F)C(F)(F)C(F)(F)C(F)(F)C(F)(F)C(F)(F)C(F)(F)F)c1ccc(P(CCP(c2ccc([Si](C)(C)CCC(F)(F)C(F)(F)C(F)(F)C(F)(F)C(F)(F)C(F)(F)C(F)(F)C(F)(F)F)cc2)c2ccc([Si](C)(C)CCC(F)(F)C(F)(F)C(F)(F)C(F)(F)C(F)(F)C(F)(F)C(F)(F)C(F)(F)F)cc2)c2ccc([Si](C)(C)CCC(F)(F)C(F)(F)C(F)(F)C(F)(F)C(F)(F)C(F)(F)C(F)(F)C(F)(F)F)cc2)cc1 [G{1,8}] | – | – | – | solubility at room temperature, THF [2]: − (−: <0.01 g/ml); solubility at room temperature, toluene [2]: − (−: <0.01 g/ml); solubility at room temperature, FC-72 [2]: − (−: <0.01 g/ml)
11 | C[Si](C)(C)c1ccc([PH](c2ccc([Si](C)(C)C)cc2)(c2ccc([Si](C)(C)C)cc2)[Rh]([Cl])([PH](c2ccc([Si](C)(C)C)cc2)(c2ccc([Si](C)(C)C)cc2)c2ccc([Si](C)(C)C)cc2)[PH](c2ccc([Si](C)(C)C)cc2)(c2ccc([Si](C)(C)C)cc2)c2ccc([Si](C)(C)C)cc2)cc1 [H{0}, [P(C6H4-4-SiMe3)3]3RhCl] | – | – | – | TOF(25%), turn over frequency at 25% conversion [3, 4]: 1610 h⁻¹; TON (mole of olefin/mole of Rh) [3, 4]: 336; conversion [3, 4]: 92%; kobs (first order rate constant) [3, 4]: 7.5(2) h^−1; TOF(25%), turn over frequency at 25% conversion [3, 5]: 1910 h⁻¹; TON (mole of olefin/mole of Rh) [3, 5]: 361; conversion [3, 5]: 99%; kobs (zero order in olefin up to 80% conversion) [3, 5]: ^eZero order in olefin up to 80% conversion, kobs = 14.2(1) mol.L^−1.h^−1.; activity relative to Wilkinson's catalyst ([3]; derived from Table 7): > 1.5 times; Highest rate of hydrogen uptake ([3]; relatively high rhodium and olefine concentrations (entry 2, Table 7)): 14.2 mol/L/h
